Laboratory results from PubChem BioAssay AID1259407 (Chemical Carcinogenesis Research Information System (CCRIS), 2018).
Active and inactive are the calls of the source. The rule behind the calls is not given here.

System: CCRIS mutagenicity, Ames/micronucleus/aberration tests
Test: CCRIS mutagenicity studies
[1] = Test System: AMES SALMONELLA TYPHIMURIUM, Strain/Indicator: TA98, Metabolic Activation: NONE, Method: PREINCUBATION
[2] = Test System: AMES SALMONELLA TYPHIMURIUM, Strain/Indicator: TA98, Metabolic Activation: NONE, Method: STANDARD PLATE
[3] = Test System: AMES SALMONELLA TYPHIMURIUM, Strain/Indicator: TA100, Metabolic Activation: NONE, Method: STANDARD PLATE

In the case of `O=C(O)CO.[NH2-].[NH2-].[Pt+2]`, the mutagenic call [1] is reported as “active; positive”, the mutagenic call (Test System: AMES SALMONELLA TYPHIMURIUM, Strain/Indicator: TA98, Metabolic Activation: RAT, LIVER, S-9, PHENOBARBITAL AND 5,6-BENZOFLAVONE, Method: PREINCUBATION) is reported as “active; positive” and the mutagenic call (Test System: AMES SALMONELLA TYPHIMURIUM, Strain/Indicator: TA100, Metabolic Activation: NONE, Method: PREINCUBATION) is reported as “active; positive”. The mutagenic call (Test System: AMES SALMONELLA TYPHIMURIUM, Strain/Indicator: TA100, Metabolic Activation: RAT, LIVER, S-9, PHENOBARBITAL AND 5,6-BENZOFLAVONE, Method: PREINCUBATION) was “active; positive”, the mutagenic call (Test System: AMES SALMONELLA TYPHIMURIUM, Strain/Indicator: TA1535, Metabolic Activation: NONE, Method: PREINCUBATION) was “inactive; negative” and the mutagenic call (Test System: AMES SALMONELLA TYPHIMURIUM, Strain/Indicator: TA1535, Metabolic Activation: RAT, LIVER, S-9, PHENOBARBITAL AND 5,6-BENZOFLAVONE, Method: PREINCUBATION) was “inactive; negative”. The mutagenic call (Test System: AMES SALMONELLA TYPHIMURIUM, Strain/Indicator: TA1537, Metabolic Activation: NONE, Method: PREINCUBATION) was “inactive; negative”, the mutagenic call (Test System: AMES SALMONELLA TYPHIMURIUM, Strain/Indicator: TA1537, Metabolic Activation: RAT, LIVER, S-9, PHENOBARBITAL AND 5,6-BENZOFLAVONE, Method: PREINCUBATION) was “inactive; negative” and the mutagenic call (Test System: E.COLI, Strain/Indicator: WP2 UVRA, Metabolic Activation: NONE, Method: PREINCUBATION) was “inactive; negative”. For the same compound, the mutagenic call (Test System: E.COLI, Strain/Indicator: WP2 UVRA, Metabolic Activation: RAT, LIVER, S-9 PHENOBARBITAL AND 5,6-BENZOFLAVONE, Method: PREINCUBATION) was “inactive; negative”.
With `CC(=O)OC1Cc2ccc3ccc4cccc5cc1c2c3c45` (stereo not drawn) the mutagenic call [2] was “active; positive” and the mutagenic call [3] was “active; positive”.
`Nc1cccc2nc3c(N)cccc3nc12` was tested, and the mutagenic call [1] was “active; positive” and the mutagenic call (Test System: AMES SALMONELLA TYPHIMURIUM, Strain/Indicator: TA98, Metabolic Activation: RAT, LIVER, S-9, PCB, Method: PREINCUBATION) was “inactive; negative”.
For `CN(C)c1ccc(C(c2ccccc2)c2ccc(N(C)C)cc2)cc1`, the mutagenic call (End Point: IN VIVO MICRONUCLEUS, Test System: PERIPHERAL BLOOD ERYTHROCYTES, Species: MOUSE, Strain/Sex: BIG BLUE B6C3F1/FEMALE, Route: DIET) was “inactive; negative”, the mutagenic call (Test System: AMES SALMONELLA TYPHIMURIUM, Strain/Indicator: TA97A, Metabolic Activation: NONE, Method: STANDARD PLATE) was “inactive; negative” and the mutagenic call (Test System: AMES SALMONELLA TYPHIMURIUM, Strain/Indicator: TA97A, Metabolic Activation: RAT LIVER S-9, 3-METHYLCHOLANTHRENE, PHENOBARBITAL, Method: STANDARD PLATE) was “inactive; negative”. For the same compound, the mutagenic call [2] was “inactive; negative”, the mutagenic call (Test System: AMES SALMONELLA TYPHIMURIUM, Strain/Indicator: TA98, Metabolic Activation: RAT LIVER S-9, 3-METHYLCHOLANTHRENE, PHENOBARBITAL, Method: STANDARD PLATE) was “inactive; negative” and the mutagenic call [3] was “inactive; negative”. For the same compound, the mutagenic call (Test System: AMES SALMONELLA TYPHIMURIUM, Strain/Indicator: TA100, Metabolic Activation: RAT LIVER S-9, 3-METHYLCHOLANTHRENE, PHENOBARBITAL, Method: STANDARD PLATE) was “inactive; negative”, the mutagenic call (Test System: AMES SALMONELLA TYPHIMURIUM, Strain/Indicator: TA102, Metabolic Activation: NONE, Method: STANDARD PLATE) was “inactive; negative” and the mutagenic call (Test System: AMES SALMONELLA TYPHIMURIUM, Strain/Indicator: TA102, Metabolic Activation: RAT LIVER S-9, 3-METHYLCHOLANTHRENE, PHENOBARBITAL, Method: STANDARD PLATE) was “inactive; negative”. For the same compound, the mutagenic call (Test System: CHO/HGPRT, Strain/Indicator: CHO-K1, Metabolic Activation: NONE, Method: STANDARD PLATE) was “inactive; negative” and the mutagenic call (Test System: CHO/HGPRT, Strain/Indicator: CHO-K1, Metabolic Activation: RAT LIVER S-9, 3-METHYLCHOLANTHRENE, PHENOBARBITAL, Method: STANDARD PLATE) was “inactive; negative”.
`[N-]=[N+]=Nc1ccc2c(Nc3ccc(NS(=O)(=O)CCCN)cc3)c3ccc(N=[N+]=[N-])cc3nc2c1` was tested, and the mutagenic call (Test System: AMES SALMONELLA TYPHIMURIUM, Strain/Indicator: TA1537, Metabolic Activation: NONE, Method: STANDARD PLATE) was “active; positive”.
For `CC(=O)N(O)c1ccc(Oc2c(Cl)cc(Cl)cc2Cl)cc1`, the mutagenic call [3] was “inactive; negative” and the mutagenic call (Test System: AMES SALMONELLA TYPHIMURIUM, Strain/Indicator: TA100, Metabolic Activation: RAT, LIVER, S-9, KANECLOR 500, Method: STANDARD PLATE) was “active; positive”.
For `O=C1c2ccccc2C([N+](=O)[O-])c2ccccc21`, the mutagenic call [2] was “inactive; negative”, the mutagenic call (Test System: AMES SALMONELLA TYPHIMURIUM, Strain/Indicator: TA98, Metabolic Activation: RAT, LIVER, S-9, AROCLOR 1254, Method: STANDARD PLATE) was “inactive; negative” and the mutagenic call [3] was “inactive; negative”. For the same compound, the mutagenic call (Test System: AMES SALMONELLA TYPHIMURIUM, Strain/Indicator: TA100, Metabolic Activation: RAT, LIVER, S-9, AROCLOR 1254, Method: STANDARD PLATE) was “inactive; negative”.
In the case of `C=C(Br)CCl`, the mutagenic call (Test System: AMES SALMONELLA TYPHIMURIUM, Strain/Indicator: TA100, Metabolic Activation: RAT, LIVER, MICROSOMES, PHENOBARBITAL, NADPH COFACTORS, Method: STANDARD PLATE) is reported as “active; positive” and the mutagenic call (Test System: AMES SALMONELLA TYPHIMURIUM, Strain/Indicator: TA100, Metabolic Activation: RAT, LIVER, MICROSOMES, PHENOBARBITAL, Method: STANDARD PLATE) is reported as “inactive; negative”.
For `C=C(CN(C)C)C(=O)c1ccccc1`, the mutagenic call (Test System: AMES SALMONELLA TYPHIMURIUM, Strain/Indicator: TA97A, Metabolic Activation: NONE, Method: SPOT TEST) was “inactive; negative”, the mutagenic call (Test System: AMES SALMONELLA TYPHIMURIUM, Strain/Indicator: TA97A, Metabolic Activation: RAT LIVER S-9, Method: SPOT TEST) was “inactive; negative” and the mutagenic call (Test System: AMES SALMONELLA TYPHIMURIUM, Strain/Indicator: TA98, Metabolic Activation: NONE, Method: SPOT TEST) was “inactive; negative”. The mutagenic call (Test System: AMES SALMONELLA TYPHIMURIUM, Strain/Indicator: TA98, Metabolic Activation: RAT LIVER S-9, Method: SPOT TEST) was “inactive; negative”, the mutagenic call (Test System: AMES SALMONELLA TYPHIMURIUM, Strain/Indicator: TA100, Metabolic Activation: NONE, Method: SPOT TEST) was “inactive; negative” and the mutagenic call (Test System: AMES SALMONELLA TYPHIMURIUM, Strain/Indicator: TA100, Metabolic Activation: RAT LIVER S-9, Method: SPOT TEST) was “active; positive”. For the same compound, the mutagenic call (Test System: AMES SALMONELLA TYPHIMURIUM, Strain/Indicator: TA102, Metabolic Activation: NONE, Method: SPOT TEST) was “inactive; negative”, the mutagenic call (Test System: AMES SALMONELLA TYPHIMURIUM, Strain/Indicator: TA102, Metabolic Activation: RAT LIVER S-9, Method: SPOT TEST) was “inactive; negative” and the mutagenic call (Test System: AMES SALMONELLA TYPHIMURIUM, Strain/Indicator: TA104, Metabolic Activation: NONE, Method: SPOT TEST) was “inactive; negative”. For the same compound, the mutagenic call (Test System: AMES SALMONELLA TYPHIMURIUM, Strain/Indicator: TA104, Metabolic Activation: RAT LIVER S-9, Method: SPOT TEST) was “inactive; negative”, the mutagenic call (Test System: AMES SALMONELLA TYPHIMURIUM, Strain/Indicator: TA1535, Metabolic Activation: NONE, Method: SPOT TEST) was “inactive; negative” and the mutagenic call (Test System: AMES SALMONELLA TYPHIMURIUM, Strain/Indicator: TA1538, Metabolic Activation: NONE, Method: SPOT TEST) was “inactive; negative”.
`CN(Cc1ccc(F)cc1)N=O` was tested, and the mutagenic call (Test System: AMES SALMONELLA TYPHIMURIUM, Strain/Indicator: TA1535, Metabolic Activation: HAMSTER, LIVER, S-9, AROCLOR 1254, Method: STANDARD PLATE) was “active; positive” and the mutagenic call (Test System: AMES SALMONELLA TYPHIMURIUM, Strain/Indicator: TA1535, Metabolic Activation: NONE, Method: STANDARD PLATE) was “inactive; negative”.
For `NC(=O)CN1CC(O)CC1=O` (stereo not drawn), the mutagenic call (Test System: AMES SALMONELLA TYPHIMURIUM, Strain/Indicator: TA98, Metabolic Activation: NONE) was “inactive; negative”, the mutagenic call (Test System: AMES SALMONELLA TYPHIMURIUM, Strain/Indicator: TA98, Metabolic Activation: RAT, LIVER, S-9, AROCLOR 1254) was “inactive; negative” and the mutagenic call (Test System: AMES SALMONELLA TYPHIMURIUM, Strain/Indicator: TA100, Metabolic Activation: NONE) was “inactive; negative”. For the same compound, the mutagenic call (Test System: AMES SALMONELLA TYPHIMURIUM, Strain/Indicator: TA100, Metabolic Activation: RAT, LIVER, S-9, AROCLOR 1254) was “inactive; negative”, the mutagenic call (Test System: AMES SALMONELLA TYPHIMURIUM, Strain/Indicator: TA1535, Metabolic Activation: NONE) was “inactive; negative” and the mutagenic call (Test System: AMES SALMONELLA TYPHIMURIUM, Strain/Indicator: TA1535, Metabolic Activation: RAT, LIVER, S-9, AROCLOR 1254) was “inactive; negative”. For the same compound, the mutagenic call (Test System: AMES SALMONELLA TYPHIMURIUM, Strain/Indicator: TA1537, Metabolic Activation: NONE) was “inactive; negative”, the mutagenic call (Test System: AMES SALMONELLA TYPHIMURIUM, Strain/Indicator: TA1537, Metabolic Activation: RAT, LIVER, S-9, AROCLOR 1254) was “inactive; negative” and the mutagenic call (Test System: E. COLI, Strain/Indicator: WP2 UVRA, Metabolic Activation: NONE) was “inactive; negative”. For the same compound, the mutagenic call (Test System: E. COLI, Strain/Indicator: WP2 UVRA, Metabolic Activation: RAT, LIVER, S-9, AROCLOR 1254) was “inactive; negative”.
